Data taken from ChEMBL document CHEMBL5543127, “Design, Synthesis, and Biological Evaluation of 2-Phenoxyalkylhydrazide Benzoxazole Derivatives as Quorum Sensing Inhibitors with Strong Antibiofilm Effect” (J Med Chem, 2024).
Converted amounts (≈) assume the structure as drawn. The source made the active and inactive calls. The calls are words filed in the database; no cut-off is given here.

Tests used:
[1] = Inhibition of quorum sensing system in Pseudomonas aeruginosa PAO1 at logarithmic growth period assessed as inhibition of pyocyanin production at 102.4 microg/ml incubated for 18 hrs by pyocyanin inhibition assay; conditions: dose 102.4 µg/ml
Pseudomonas aeruginosa [2] = assay: Induction of anti-bacterial effect in Pseudomonas aeruginosa PAO1 assessed as synergistic effect by measuring reduction in bacterial survival in presence of clarithromycin measured after 24 hrs incubation; assay type: functional, organism-based; conditions: dose 8-128 µg/ml
Bacillus subtilis = assay: Anti-microbial activity against Bacillus subtilis ATCC9372 incubated for 20 hrs By CLSI based micro-dilution method; assay type: functional
Staphylococcus aureus [3] = assay: Anti-microbial activity against methicillin-resistant Staphylococcus aureus ATCC43300 incubated for 20 hrs By CLSI based micro-dilution method; assay type: functional
Pseudomonas aeruginosa [4] = assay: Antibiofilm activity against logarithmic growth phase Pseudomonas aeruginosa PAO1 assessed as inhibition of biofilm formation at 32 microg/ml incubated for 20 hrs by crystal violet staining based analysis; assay type: functional
Escherichia coli = assay: Anti-microbial activity against penicillin-susceptible Escherichia coli ATCC25922 incubated for 20 hrs By CLSI based micro-dilution method; assay type: functional
Pseudomonas aeruginosa [5] = assay: Antibiofilm activity against logarithmic growth phase Pseudomonas aeruginosa PAO1 assessed as inhibition of biofilm formation at 16 microg/ml incubated for 20 hrs by crystal violet staining based analysis; assay type: functional; conditions: dose 16.0 µg/ml
Bacillus pumilus = assay: Anti-microbial activity against Bacillus pumilus CMCC63202 incubated for 20 hrs By CLSI based micro-dilution method; assay type: functional
Pseudomonas aeruginosa [6] = assay: Anti-microbial activity against Pseudomonas aeruginosa PAO1 incubated for 20 hrs By CLSI based micro-dilution method; assay type: functional
Pseudomonas aeruginosa [7] = assay: Anti-microbial activity against penicillin-susceptible Pseudomonas aeruginosa 27853 incubated for 20 hrs By CLSI based micro-dilution method; assay type: functional
Pseudomonas aeruginosa [8] = assay: Induction of anti-bacterial effect in Pseudomonas aeruginosa PAO1 assessed as synergistic effect by measuring reduction in bacterial survival in presence of ciprofloxacin measured after 24 hrs incubation; assay type: functional, organism-based; conditions: dose 8-128 µg/ml
Staphylococcus aureus [9] = assay: Anti-microbial activity against erythromycin-susceptible Staphylococcus aureus ATCC25923 incubated for 20 hrs By CLSI based micro-dilution method; assay type: functional
Pseudomonas aeruginosa [10] = assay: Inhibition of protease in logarithmic growth phase Pseudomonas aeruginosa PAO1 assessed as inhibition rate at 102.4 microg/ml measured after 32 hrs; conditions: dose 102.4 µg/ml
Erythrocyte = assay: Hemolytic activity in mouse RBC isolated from eye ball assessed as hemolysis at 256 microg/ml incubated for 1 hr; assay type: toxicity, cell-based; conditions: dose 256 µg/ml
Pseudomonas aeruginosa [11] = assay: Anti-virulence activity against logarithmic growth phase Pseudomonas aeruginosa PAO1 assessed as inhibition of Rhamnolipid production at 102.4 microg/ml measured after 24 hrs; assay type: functional
Pseudomonas aeruginosa [12] = assay: Antibacterial activity against Pseudomonas aeruginosa 27853 at logarithmic growth phase assessed as growth inhibition at 153.6 microg/ml measured upto 25 hrs by growth curve assay; assay type: functional, organism-based; conditions: dose 153.6 µg/ml
Pseudomonas aeruginosa [13] = assay: Antibacterial activity against Pseudomonas aeruginosa PAO1 at logarithmic growth phase assessed as growth inhibition at 153.6 microg/ml measured upto 25 hrs by growth curve assay; assay type: functional, organism-based; conditions: dose 153.6 µg/ml
Pseudomonas aeruginosa [14] = assay: Induction of anti-bacterial effect in Pseudomonas aeruginosa PAO1 assessed as synergistic effect by measuring reduction in bacterial survival in presence of ciprofloxacin at 16 to 128 microg/ml measured after 24 hrs incubation; assay type: functional, organism-based; conditions: dose 16-128 µg/ml
Pseudomonas aeruginosa [15] = assay: Induction of anti-bacterial effect in Pseudomonas aeruginosa PAO1 assessed as synergistic effect by measuring reduction in bacterial survival in presence of ciprofloxacin at 128 microg/ml measured after 24 hrs incubation relative to control; assay type: functional; conditions: dose 128 µg/ml
Pseudomonas aeruginosa [16] = assay: Induction of anti-bacterial effect in Pseudomonas aeruginosa PAO1 assessed as synergistic effect by measuring reduction in bacterial survival in presence of clarithromycin at 16 to 128 microg/ml measured after 24 hrs incubation; assay type: functional, organism-based; conditions: dose 16-128 µg/ml

SMILES	inhibition [1]	Activity (Pseudomonas aeruginosa [2])	MIC (Bacillus subtilis)	MIC (Staphylococcus aureus [3])	inhibition at 32 µg/mL (Pseudomonas aeruginosa [4])	MIC (Escherichia coli)	inhibition (Pseudomonas aeruginosa [5])	MIC (Bacillus pumilus)	MIC (Pseudomonas aeruginosa [6])	MIC (Pseudomonas aeruginosa [7])	Activity (Pseudomonas aeruginosa [8])	MIC (Staphylococcus aureus [9])	inhibition (Pseudomonas aeruginosa [10])	Activity (Erythrocyte)	inhibition at 102.4 µg/mL (Pseudomonas aeruginosa [11])	Activity (Pseudomonas aeruginosa [12])	Activity (Pseudomonas aeruginosa [13])	Activity (Pseudomonas aeruginosa [14])	Activity (Pseudomonas aeruginosa [15])	Activity (Pseudomonas aeruginosa [16])
COc1ccc(OCCCCC(=O)NNc2nc3ccccc3o2)cc1	Active	Dose-Dependent Effect	512 µg/mL (≈ 1440 µM)	> 512 µg/mL	> 25.4%	> 512 µg/mL	Active	> 512 µg/mL	> 512 µg/mL	512 µg/mL (≈ 1440 µM)	Dose-Dependent Effect	512 µg/mL (≈ 1440 µM)	14.6%	Non-Toxic	52.1%	–	–	–	–	–
Cc1ccc(C(=O)NNc2nc3ccccc3s2)cc1	62.8%	Dose-Dependent Effect	512 µg/mL (≈ 1810 µM)	256 µg/mL (≈ 903 µM)	> 25.4%	> 512 µg/mL	Active	256 µg/mL (≈ 903 µM)	> 512 µg/mL	512 µg/mL (≈ 1810 µM)	Dose-Dependent Effect	512 µg/mL (≈ 1810 µM)	> 20%	Non-Toxic	–	inactive	inactive	–	–	–
O=C(CCCOc1cccc(C(F)(F)F)c1)NNc1nc2ccccc2o1	inactive	Dose-Dependent Effect	512 µg/mL (≈ 1350 µM)	512 µg/mL (≈ 1350 µM)	> 25.4%	> 512 µg/mL	Active	> 512 µg/mL	> 512 µg/mL	256 µg/mL (≈ 675 µM)	Dose-Dependent Effect	256 µg/mL (≈ 675 µM)	30%	–	> 40%	inactive	inactive	–	–	–
O=C(CCCCOc1ccc(Cl)cc1)NNc1nc2ccccc2s1	Active	–	> 512 µg/mL	512 µg/mL (≈ 1360 µM)	> 25.4%	> 512 µg/mL	Active	256 µg/mL (≈ 681 µM)	> 512 µg/mL	> 512 µg/mL	–	256 µg/mL (≈ 681 µM)	–	–	> 40%	inactive	inactive	–	–	–
CCCCCCCCCCC(=O)N/N=c1\sc2ccccc2n1C	–	Dose-Dependent Effect	> 512 µg/mL	> 512 µg/mL	> 25.4%	> 512 µg/mL	Active	> 512 µg/mL	> 512 µg/mL	> 512 µg/mL	Dose-Dependent Effect	> 512 µg/mL	> 20%	Non-Toxic	–	inactive	inactive	Active	>90%	Active
O=C(CCCCOc1ccc(Cl)cc1)NNc1nc2ccccc2o1	Active	Dose-Dependent Effect	512 µg/mL (≈ 1420 µM)	512 µg/mL (≈ 1420 µM)	> 25.4%	> 512 µg/mL	Active	> 512 µg/mL	> 512 µg/mL	512 µg/mL (≈ 1420 µM)	Dose-Dependent Effect	128 µg/mL (≈ 356 µM)	inactive	Non-Toxic	–	–	–	Active	>90%	Active
O=C(CCCCOc1ccc(F)cc1)NNc1nc2ccccc2o1	53.6%	Dose-Dependent Effect	> 512 µg/mL	> 512 µg/mL	> 25.4%	> 512 µg/mL	Active	> 512 µg/mL	> 512 µg/mL	512 µg/mL (≈ 1490 µM)	Dose-Dependent Effect	> 512 µg/mL	inactive	Non-Toxic	–	–	–	Active	>90%	Active
O=C(CCCCOc1ccc(Cl)cc1)NNc1nc2ccc(Cl)cc2o1	Active	Dose-Dependent Effect	512 µg/mL (≈ 1300 µM)	256 µg/mL (≈ 649 µM)	> 25.4%	> 512 µg/mL	Active	256 µg/mL (≈ 649 µM)	> 512 µg/mL	> 512 µg/mL	Dose-Dependent Effect	256 µg/mL (≈ 649 µM)	inactive	–	> 40%	–	–	–	–	–
COc1ccc(OCCCC(=O)NNc2nc3ccccc3o2)cc1	inactive	–	512 µg/mL (≈ 1500 µM)	128 µg/mL (≈ 375 µM)	> 25.4%	> 512 µg/mL	Active	512 µg/mL (≈ 1500 µM)	> 512 µg/mL	128 µg/mL (≈ 375 µM)	–	64 µg/mL (≈ 187 µM)	30%	–	> 40%	–	–	–	–	–
O=C(CCCOc1ccc(C(F)(F)F)cc1)NNc1nc2ccccc2o1	inactive	Dose-Dependent Effect	512 µg/mL (≈ 1350 µM)	256 µg/mL (≈ 675 µM)	> 25.4%	> 512 µg/mL	Active	> 512 µg/mL	> 512 µg/mL	256 µg/mL (≈ 675 µM)	Dose-Dependent Effect	256 µg/mL (≈ 675 µM)	30%	Non-Toxic	> 40%	inactive	inactive	–	–	–
O=C(NNc1nc2ccccc2s1)c1ccccc1F	62.8%	Dose-Dependent Effect	512 µg/mL (≈ 1780 µM)	> 512 µg/mL	> 25.4%	> 512 µg/mL	Active	512 µg/mL (≈ 1780 µM)	> 512 µg/mL	512 µg/mL (≈ 1780 µM)	Dose-Dependent Effect	> 512 µg/mL	> 20%	Non-Toxic	–	inactive	inactive	–	–	–
